Source: paper PMC4085797, “Synthetic Inositol Phosphate Analogs Reveal that PPIP5K2 Has a Surface-Mounted Substrate Capture Site that Is a Target for Drug Discovery” (Chemistry & Biology, 2014)
pIC50: −log10 of the molar value.

Biological target: T1, human IP6K2 (Homo sapiens, UniProt Q9UHH9)
T1 construct: Full-length human IP6K2, the kinase domain of human PPIP5K2; made in house
T1 sequence (Q9UHH9 1-426): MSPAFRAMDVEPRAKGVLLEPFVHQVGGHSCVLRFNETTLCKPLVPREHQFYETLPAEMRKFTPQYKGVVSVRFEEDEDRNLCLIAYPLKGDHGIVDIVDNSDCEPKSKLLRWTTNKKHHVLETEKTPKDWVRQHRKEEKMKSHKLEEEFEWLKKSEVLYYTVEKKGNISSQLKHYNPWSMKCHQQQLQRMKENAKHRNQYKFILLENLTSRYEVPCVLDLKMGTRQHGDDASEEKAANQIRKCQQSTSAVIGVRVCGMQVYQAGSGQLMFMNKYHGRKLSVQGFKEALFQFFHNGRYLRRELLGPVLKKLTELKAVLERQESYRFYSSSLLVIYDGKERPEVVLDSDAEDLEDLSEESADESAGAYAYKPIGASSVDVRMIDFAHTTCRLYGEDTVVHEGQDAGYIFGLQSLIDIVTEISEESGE
Assay: HPLC assay of [3H]InsP6 phosphorylation by IP6K2
Type: biochemical
Settings: [InsP6] = 500 nM; data not shown; read-out: IC50, inhibition of IP6K2 activity
Experimental: The initial InsP6 concentration was either 500 nM, 70 nM, or 40 nM. Various concentrations of 2,5-di-O-Bn-InsP4 were present as indicated. Radioactivity was assessed using an in-line Flo1 detector. The ADP-driven dephosphorylation of 100 nM 1,5-[PP]2-InsP4 by PPIP5K2^KD was usually determined by a luminescence-based assay of ATP accumulation ([Riley et al., 2012; Weaver et al., 2013]). The IC50 values were determined using GraphPad Prism v6.02 (n ≥ 3). In some experiments, 1,5-[PP]2-[^3H]InsP4 dephosphorylation by PPIP5K2^KD was assayed in 50 μl buffer containing 50 mM KCl, 20 mM HEPES pH 7.0, 7 mM MgSO4, 5 mM ADP, 1 mM EDTA. Reactions were then quenched, neutralized, and analyzed with HPLC using a Partisphere SAX column ([Weaver et al., 2013]); 1 ml fractions were collected for liquid scintillation spectrometry. The ATPase activity of PPIP5K2^KD (10–270 μg/ml) was assayed from Pi release following incubation at 37°C for 120–180 min in 20 μl reaction mixtures containing 20 mM Tris/HCl, pH 7.5, 10 mM ATP, 100 mM KCl, 0.1 mM EDTA, and 13 mM MgCl2.

pIC50: 4.20
SMILES: O=P(O)(O)O[C@@H]1[C@@H](OCc2ccccc2)[C@H](OP(=O)(O)O)[C@@H](OP(=O)(O)O)[C@@H](OCc2ccccc2)[C@H]1OP(=O)(O)O [compound 10, 2,5-di-O-Bn-InsP4]
